Assay results as given in ChEMBL document CHEMBL1139966, “ERbeta ligands. Part 6: 6H-Chromeno[4,3-b]quinolines as a new series of estrogen receptor beta-selective ligands” (Bioorg Med Chem Lett, 2007).

Organism: Homo sapiens
Experiment: Selectivity for human ERalpha over ERbeta

Ratio IC50	Compound
8	N#Cc1cccc(-c2c3c(nc4ccc(O)cc24)-c2ccc(O)cc2OC3)c1
15	Oc1ccc2c(c1)OCc1c-2nc2ccc(O)cc2c1-c1ccc(Cl)cc1
16	Oc1ccc2c(c1)OCc1c-2nc2ccc(O)cc2c1-c1ccc(C(F)(F)F)cc1
6	COc1ccc(-c2c3c(nc4ccc(O)cc24)-c2ccc(O)cc2OC3)cc1
4	Oc1ccc2c(c1)OCc1c-2nc2ccc(O)cc2c1-c1cccc(Cl)c1
16	N#Cc1ccc(-c2c3c(nc4ccc(O)cc24)-c2ccc(O)cc2OC3)cc1
27	Oc1ccc2c(c1)OCc1c-2nc2ccc(O)cc2c1Cl
10	COc1cccc(-c2c3c(nc4ccc(O)cc24)-c2ccc(O)cc2OC3)c1

Second part, the compound before the results:

Compound	Ratio IC50
Oc1ccc(-c2cc(Cl)c3cc(O)ccc3n2)cc1	46
N#Cc1c2c(nc3ccc(O)cc13)-c1ccc(O)cc1OC2	16
C#Cc1c2c(nc3ccc(O)cc13)-c1ccc(O)cc1OC2	12
CCc1c2c(nc3ccc(O)cc13)-c1ccc(O)cc1OC2	14
Oc1ccc2c(c1)OCc1c-2nc2ccc(O)cc2c1Br	16
C#Cc1cc(-c2ccc(O)cc2)nc2ccc(O)cc12	20
C=Cc1c2c(nc3ccc(O)cc13)-c1ccc(O)cc1OC2	24
CCc1cc(-c2ccc(O)cc2)nc2ccc(O)cc12	12
